The target in one experiment is T1, α-L-fucosidase (Bos taurus, UniProt Q2KIM0).
T1 construct: purchased Sigma
T1 sequence (Q2KIM0 23-468): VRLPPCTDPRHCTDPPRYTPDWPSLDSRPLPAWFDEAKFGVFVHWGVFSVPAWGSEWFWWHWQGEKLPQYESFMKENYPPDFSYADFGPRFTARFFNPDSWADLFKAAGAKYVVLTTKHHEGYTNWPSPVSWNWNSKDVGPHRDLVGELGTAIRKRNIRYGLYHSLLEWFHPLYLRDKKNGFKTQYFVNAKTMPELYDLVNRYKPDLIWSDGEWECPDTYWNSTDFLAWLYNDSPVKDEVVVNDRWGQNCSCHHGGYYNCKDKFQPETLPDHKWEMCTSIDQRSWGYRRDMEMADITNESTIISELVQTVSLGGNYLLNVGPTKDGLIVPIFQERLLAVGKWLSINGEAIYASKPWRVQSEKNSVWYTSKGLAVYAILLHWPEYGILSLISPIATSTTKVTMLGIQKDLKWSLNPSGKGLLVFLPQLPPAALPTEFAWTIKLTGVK
Nature of the experiment: Glycosidase inhibition: α-L-fucosidase. As to conditions: 1 mg/ml; read-out: % inhibition, fucosidase. Format: biochemical, Bovine. Summed up: (§1)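 Absorbance at 405 nm of released p-nitrophenol gives activity after a glycine pH 10.4 stop timed to the exponential phase. Incubations run at 20° C in citrate/phosphate buffer at optimum pH with 3.57 mM final p-nitrophenyl substrate.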

The subject of experiment [1] is N-acetyl-β-D-glucosaminidase. Briefly: Glycosidase inhibition: N-acetyl-β-D-glucosaminidase. Particulars: 1 mg/ml. Format: biochemical, Bovine. Summed up: as §1

The record followed here is patent US20090117083A1, “IMMUNOMODULATORY ALKALOIDS” (M N L PHARMA LIMITED, priority 2004, published 2009).

A word on the inhibition: it is the change of the read-out against control, counted positive when it falls.

Take `OC[C@@H]1[C@@H](O)[C@H](O)[C@H]2[C@H](O)[C@@H](O)CN21` [casuarine (8)]: the inhibition at 1000 µg/mL at α-L-fucosidase was -1%. Besides, the “% inhibition, N-acetyl-β-gluc” value in experiment [1] is 14%.
